Like-named read-outs stand apart in the source and are kept apart here.
Target: mu-opioid receptor (MOR) (Homo sapiens (Human), UniProt P35372)
Assay: cell-based
Conditions: combined with a MOR antagonist; for AUC: AUC of [Ca2+]i fluorescence, CHO-K1/MOR/Gα15 cells

mu-opioid receptor (MOR), sequence (P35372 whole entry): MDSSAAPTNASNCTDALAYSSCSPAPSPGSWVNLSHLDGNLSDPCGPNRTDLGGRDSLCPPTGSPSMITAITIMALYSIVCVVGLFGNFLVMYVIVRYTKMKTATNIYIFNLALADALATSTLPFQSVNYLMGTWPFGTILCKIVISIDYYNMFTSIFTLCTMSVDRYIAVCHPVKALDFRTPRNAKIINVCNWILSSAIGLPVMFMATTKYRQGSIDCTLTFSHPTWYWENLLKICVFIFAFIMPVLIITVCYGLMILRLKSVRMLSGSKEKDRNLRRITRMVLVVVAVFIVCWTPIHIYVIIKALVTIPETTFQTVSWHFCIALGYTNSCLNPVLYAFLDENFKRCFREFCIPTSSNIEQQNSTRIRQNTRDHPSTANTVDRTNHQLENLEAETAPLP

With `Cc1cc(C(=O)NS(=O)(=O)c2cccc3c(N(C)C)cccc23)ccc1N1C(=O)CSC1c1ccc(F)cc1` (stereo not drawn) [Example 210] the AUC was “more than 5000”, the EC50 (EC50, CHO-K1/MOR/Gα15 cells) was < 10 µM and the “FLIPR Ca^2+ AUC” value was 9425. For the same compound, the EC50 (read-out: FLIPR Ca^2+ EC50) was 0.7 µM.

For `Cc1cc(C(=O)OC2COC(C)(C)OC2)ccc1N1C(=O)CSC1c1ccc(F)cc1` (stereo not drawn) [Example 277], the EC50 (EC50, CHO-K1/MOR/Gα15 cells) was < 10 µM, the “FLIPR Ca^2+ AUC” value was 14634 and the EC50 (read-out: FLIPR Ca^2+ EC50) was 6.1 µM.

With `Cc1cc(C(=O)NS(=O)(=O)c2ccc(Cl)cc2F)ccc1N1C(=O)CSC1c1ccc(F)cc1` (stereo not drawn) the AUC was “more than 5000”, the EC50 (EC50, CHO-K1/MOR/Gα15 cells) was < 10 µM and the “FLIPR Ca^2+ AUC” value was 15287. It also gave an EC50 (read-out: FLIPR Ca^2+ EC50) of 0.1 µM.

In the case of `Cc1cc(C(=O)NCCc2ccc(F)cc2)ccc1N1C(=O)CSC1c1ccc(F)cc1` (stereo not drawn) [Example 387], the “FLIPR Ca^2+ AUC” value is reported as 5770 and the EC50 (read-out: FLIPR Ca^2+ EC50) is reported as 4 µM.

With `Cc1cc(C(=O)OCOC(=O)OC(C)C)ccc1N1C(=O)CSC1c1ccc(F)cc1` (stereo not drawn) [Example 314] the EC50 (EC50, CHO-K1/MOR/Gα15 cells) was < 10 µM.

For `CCOc1ccc(N2C(=O)CSC2c2ccc(F)cc2)cc1Cl` (stereo not drawn) [Example 20], the EC50 (EC50, CHO-K1/MOR/Gα15 cells) was < 10 µM.

For `Cc1cc(C(=O)NS(=O)(=O)c2ccc(F)cc2F)ccc1N1C(=O)CSC1c1ccc(F)cc1` (stereo not drawn) [Example 206], the EC50 (EC50, CHO-K1/MOR/Gα15 cells) was < 10 µM.

With `Cc1cc(C(=O)NS(=O)(=O)c2ccc(Cl)cc2)ccc1N1C(=O)CSC1c1ccc(F)cc1` (stereo not drawn) [Example 198] the AUC was “more than 5000”, the EC50 (EC50, CHO-K1/MOR/Gα15 cells) was < 10 µM and the “FLIPR Ca^2+ AUC” value was 13313. The EC50 (read-out: FLIPR Ca^2+ EC50) was 0.5 µM.

In the case of `CCc1ccc(S(=O)(=O)NC(=O)c2ccc(N3C(=O)CSC3c3ccc(F)cc3)c(C)c2)cc1` (stereo not drawn) [Example 186], the “FLIPR Ca^2+ AUC” value is reported as 18048 and the EC50 (read-out: FLIPR Ca^2+ EC50) is reported as 0.6 µM.

`Cc1cc(C(=O)OCCc2scnc2C)ccc1N1C(=O)CSC1c1ccc(F)cc1` (stereo not drawn) [Example 266] was tested, and the “FLIPR Ca^2+ AUC” value was 12653 and the EC50 (read-out: FLIPR Ca^2+ EC50) was 4.6 µM.

In the case of `COc1ccc(S(=O)(=O)NC(=O)c2ccc(N3C(=O)CSC3c3ccc(F)cc3)c(C)c2)cc1` (stereo not drawn) [Example 188], the “FLIPR Ca^2+ AUC” value is reported as 21983 and the EC50 (read-out: FLIPR Ca^2+ EC50) is reported as 0.7 µM.

For `COC(=O)Cc1ccc(N2C(=O)CSC2c2ccc(F)cc2)c(C)c1` (stereo not drawn) [Example 96], the AUC was “more than 5000”, the EC50 (EC50, CHO-K1/MOR/Gα15 cells) was < 10 µM and the “FLIPR Ca^2+ AUC” value was 9657. The EC50 (read-out: FLIPR Ca^2+ EC50) was 10 µM.

`Cc1cc(C(=O)OCCOCCN)ccc1N1C(=O)CSC1c1ccc(F)cc1` (stereo not drawn) [Example 303] was tested, and the AUC was “more than 5000”, the EC50 (EC50, CHO-K1/MOR/Gα15 cells) was < 10 µM and the “FLIPR Ca^2+ AUC” value was 9530. For the same compound, the EC50 (read-out: FLIPR Ca^2+ EC50) was 7 µM.

For `Cc1cc(C(=O)NS(N)(=O)=O)ccc1N1C(=O)CSC1c1ccc(F)cc1` (stereo not drawn) [Example 173], the “FLIPR Ca^2+ AUC” value was 14841 and the EC50 (read-out: FLIPR Ca^2+ EC50) was 5.3 µM.

With `[2H]C1(c2ccc(F)cc2)SCC(=O)N1c1ccc(C(=O)O)cc1C` (stereo not drawn) [Example 581, 4-[2-(4-Fluorophenyl)-4-oxo-2-d1-1,3-thiazolidin-3-yl]-3-methylbenzoic acid] the “FLIPR Ca^2+ AUC” value was 13703 and the EC50 (read-out: FLIPR Ca^2+ EC50) was 3.31 µM.

In the case of `Cc1cc(C(=O)OCCCc2ccccn2)ccc1N1C(=O)CSC1c1ccc(F)cc1` (stereo not drawn) [Example 263], the AUC is reported as “more than 5000”, the EC50 (EC50, CHO-K1/MOR/Gα15 cells) is reported as < 10 µM and the “FLIPR Ca^2+ AUC” value is reported as 14918. It also gave an EC50 (read-out: FLIPR Ca^2+ EC50) of 9.2 µM.

For `Cc1cc(C(=O)NS(=O)(=O)c2ccc(F)cc2)ccc1N1C(=O)CSC1c1ccc(F)cc1` (stereo not drawn) [Example 196], the AUC was “more than 5000”, the EC50 (EC50, CHO-K1/MOR/Gα15 cells) was < 10 µM and the “FLIPR Ca^2+ AUC” value was 15620. For the same compound, the EC50 (read-out: FLIPR Ca^2+ EC50) was 1.1 µM.

`Cc1ccc(S(=O)(=O)NC(=O)c2ccc(N3C(=O)CSC3c3ccc(F)cc3)c(C)c2)cc1` (stereo not drawn) [Example 185] was tested, and the “FLIPR Ca^2+ AUC” value was 18048 and the EC50 (read-out: FLIPR Ca^2+ EC50) was 0.6 µM.

`CONC(=O)c1ccc(N2C(=O)CSC2c2ccc(F)cc2)c(C)c1` (stereo not drawn) was tested, and the “FLIPR Ca^2+ AUC” value was 14236 and the EC50 (read-out: FLIPR Ca^2+ EC50) was 4.2 µM.

For `Cc1cc(C(=O)NCCc2ccccc2F)ccc1N1C(=O)CSC1c1ccc(F)cc1` (stereo not drawn) [Example 383], the “FLIPR Ca^2+ AUC” value was 5504 and the EC50 (read-out: FLIPR Ca^2+ EC50) was 6.9 µM.

`CCONC(=O)c1ccc(N2C(=O)CSC2c2ccc(F)cc2)c(C)c1` (stereo not drawn) [Example 215] was tested, and the “FLIPR Ca^2+ AUC” value was 10945 and the EC50 (read-out: FLIPR Ca^2+ EC50) was 4.1 µM.

`Cc1cc(C(=O)OCCN2CCOCC2)ccc1N1C(=O)CSC1c1ccc(F)cc1` (stereo not drawn) [Example 296] was tested, and the “FLIPR Ca^2+ AUC” value was 14052 and the EC50 (read-out: FLIPR Ca^2+ EC50) was 2.3 µM.

With `N#Cc1cc(F)c(N2C(=O)CSC2c2ccc(F)cc2)c(F)c1` (stereo not drawn) [Example 43] the AUC was “more than 5000”, the “FLIPR Ca^2+ AUC” value was 12926 and the EC50 (read-out: FLIPR Ca^2+ EC50) was 11.2 µM.

With `CC(=O)c1ccc(C)c(N2C(=O)CSC2c2ccc(F)cc2)c1` (stereo not drawn) [Example 90] the EC50 (EC50, CHO-K1/MOR/Gα15 cells) was < 10 µM.

`Cc1cc(C(=O)OCCC2CC2)ccc1N1C(=O)CSC1c1ccc(F)cc1` (stereo not drawn) [Example 238] was tested, and the AUC was “more than 5000”, the “FLIPR Ca^2+ AUC” value was 15409 and the EC50 (read-out: FLIPR Ca^2+ EC50) was 12.3 µM.

In the case of `Cc1cc(C(=O)OCC2COC(C)(C)O2)ccc1N1C(=O)CSC1c1ccc(F)cc1` (stereo not drawn) [Example 276], the EC50 (EC50, CHO-K1/MOR/Gα15 cells) is reported as < 10 µM, the “FLIPR Ca^2+ AUC” value is reported as 15090 and the EC50 (read-out: FLIPR Ca^2+ EC50) is reported as 6.3 µM.

With `Cc1c(N2C(=O)CSC2c2ccccc2)c(=O)n(-c2ccccc2)n1C` (stereo not drawn) [Example 408] the AUC was “more than 5000”, the “FLIPR Ca^2+ AUC” value was 9281 and the EC50 (read-out: FLIPR Ca^2+ EC50) was 12.7 µM.

With `COCCOCCS(=O)(=O)NC(=O)c1ccc(N2C(=O)CSC2c2ccc(F)cc2)c(C)c1` (stereo not drawn) [Example 597, 4-[2-(4-Fluorophenyl)-4-oxo-1,3-thiazolidin-3-yl]-N-{[2-(2-methoxyethoxy)ethyl]sulfonyl}-3-methylbenzamide] the AUC was “more than 5000”, the EC50 (EC50, CHO-K1/MOR/Gα15 cells) was < 10 µM and the “FLIPR Ca^2+ AUC” value was 10720. It also gave an EC50 (read-out: FLIPR Ca^2+ EC50) of 1.12 µM.

`Cc1cc(C(=O)NCc2ccc(Cl)cc2F)ccc1N1C(=O)CSC1c1ccc(F)cc1` (stereo not drawn) [Example 375] was tested, and the “FLIPR Ca^2+ AUC” value was 4172 and the EC50 (read-out: FLIPR Ca^2+ EC50) was 3.8 µM.

With `Cc1cc(C(=O)N2CCC(N)C2)ccc1N1C(=O)CSC1c1ccc(F)cc1` (stereo not drawn) [Example 351] the “FLIPR Ca^2+ AUC” value was 11205 and the EC50 (read-out: FLIPR Ca^2+ EC50) was 10 µM.

With `COc1cc(CNC(=O)c2ccc(N3C(=O)CSC3c3ccc(F)cc3)c(C)c2)cc(OC)c1` (stereo not drawn) [Example 380] the AUC was “more than 5000”, the EC50 (EC50, CHO-K1/MOR/Gα15 cells) was < 10 µM and the “FLIPR Ca^2+ AUC” value was 10013. It also gave an EC50 (read-out: FLIPR Ca^2+ EC50) of 8.2 µM.

With `Cc1cc(C(=O)OCCOCCOC(=O)c2ccc(N3C(=O)CSC3c3ccc(F)cc3)c(C)c2)ccc1N1C(=O)CSC1c1ccc(F)cc1` (stereo not drawn) [Example 390] the AUC was “more than 5000”, the “FLIPR Ca^2+ AUC” value was 7399 and the EC50 (read-out: FLIPR Ca^2+ EC50) was 13.9 µM.

For `Cc1cc(C(=O)NS(=O)(=O)c2cccc(F)c2)ccc1N1C(=O)CSC1c1ccc(F)cc1` (stereo not drawn) [Example 194], the AUC was “more than 5000”, the EC50 (EC50, CHO-K1/MOR/Gα15 cells) was < 10 µM and the “FLIPR Ca^2+ AUC” value was 19019. It also gave an EC50 (read-out: FLIPR Ca^2+ EC50) of 0.2 µM.

For `Cc1cc(C(=O)O)ccc1N1C(=O)CSC1c1cccc(C(F)(F)F)c1` (stereo not drawn) [Example 74], the EC50 (EC50, CHO-K1/MOR/Gα15 cells) was < 10 µM.

With `CCSCCOC(=O)c1ccc(N2C(=O)CSC2c2ccc(F)cc2)c(C)c1` (stereo not drawn) [Example 271] the “FLIPR Ca^2+ AUC” value was 11997 and the EC50 (read-out: FLIPR Ca^2+ EC50) was 14 µM.

For `Cc1cc(C(=O)OCCCN(C)C)ccc1N1C(=O)CSC1c1ccc(F)cc1` (stereo not drawn) [Example 291], the “FLIPR Ca^2+ AUC” value was 8913 and the EC50 (read-out: FLIPR Ca^2+ EC50) was 1.9 µM.

For `CCOC(=O)c1ccc(S(=O)(=O)NC(=O)c2ccc(N3C(=O)CSC3c3ccc(F)cc3)c(C)c2)cc1` (stereo not drawn) [Example 190], the “FLIPR Ca^2+ AUC” value was 16512 and the EC50 (read-out: FLIPR Ca^2+ EC50) was 2.4 µM.

`Cc1cc(C(=O)O)ccc1N1C(=O)CSC1c1cc(F)cc(F)c1` (stereo not drawn) [Example 64] was tested, and the AUC was “more than 5000”, the EC50 (EC50, CHO-K1/MOR/Gα15 cells) was < 10 µM and the “FLIPR Ca^2+ AUC” value was 9368. It also gave an EC50 (read-out: FLIPR Ca^2+ EC50) of 6 µM.

With `Cc1cc(C(=O)NN)ccc1N1C(=O)CSC1c1ccc(F)cc1` (stereo not drawn) [Example 220] the “FLIPR Ca^2+ AUC” value was 13871 and the EC50 (read-out: FLIPR Ca^2+ EC50) was 4.9 µM.

With `C=Cc1cc(C(=O)O)ccc1N1C(=O)CSC1c1ccc(F)cc1` (stereo not drawn) [Example 157] the AUC was “more than 5000”, the EC50 (EC50, CHO-K1/MOR/Gα15 cells) was < 10 µM and the “FLIPR Ca^2+ AUC” value was 5903. The EC50 (read-out: FLIPR Ca^2+ EC50) was 10 µM.

From patent publication US10544113B2 (priority 2016, dated 2020)
